{"source": "patent US9573921B2", "about": "“Substituted N, N-dimethylaminoalkyl ethers of isoflavanone oximes as H1-receptor antagonists” (POLFARMEX S.A., priority 2013, dated 2017)", "molecular_target": "T1, H3 (Cavia porcellus, UniProt Q9JI35)", "T1 construct": "Whole jejunum segments (2 cm) were prepared and mounted between two platinum electrodes; from tissue; host or cells: guinea pig jejunum (small intestine, 20-50 cm proximal to the ileocaecal valve)", "T1 sequence (Q9JI35 whole entry)": "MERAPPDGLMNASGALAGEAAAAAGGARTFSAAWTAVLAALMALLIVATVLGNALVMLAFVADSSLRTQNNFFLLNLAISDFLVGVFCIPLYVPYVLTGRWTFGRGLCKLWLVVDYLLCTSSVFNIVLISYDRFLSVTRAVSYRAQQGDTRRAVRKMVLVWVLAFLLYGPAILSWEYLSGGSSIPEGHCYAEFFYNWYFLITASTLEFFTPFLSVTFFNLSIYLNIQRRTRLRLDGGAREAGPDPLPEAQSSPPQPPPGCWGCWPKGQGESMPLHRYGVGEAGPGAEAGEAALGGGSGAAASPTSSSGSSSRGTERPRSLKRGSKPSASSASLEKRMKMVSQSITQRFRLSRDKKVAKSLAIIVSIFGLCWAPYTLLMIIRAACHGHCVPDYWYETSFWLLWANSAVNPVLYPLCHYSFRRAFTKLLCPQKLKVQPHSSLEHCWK", "experiment": "H3 antagonistic effects in vitro, electrically stimulated guinea pig jejunum, versus (R)-α-methylhistamine", "type": "cell-based", "conditions": "(R)-α-methylhistamine as H3-agonist, pyrilamine 1·10^-5 mol/L present, Schild regression, read-out: pA2 (H3-antagonistic activity) (converted)", "description": "Selected compounds were tested for H3 antagonistic effects in vitro, following standard methods, using the guinea pig ileum (R. C. Vollinga, O. P. Zuiderveld, H. Scheerens, A. Bast, H. Timmerman, Meth. Find. Exp. Cli. Pharmacol. 1992, 105, 747-751). Male guinea pigs weighing 300-400 g were sacrificed by a blow on the head. A portion of the small intestine, 20-50 cm proximal to the ileocaecal valve (jejunum), was removed and placed in Krebs buffer (composition (mM) NaCl 118; KCl 5.6; MgSO4 1.18; CaCl2 2.5; NaH2PO4 1.28; NaHCO3 25; glucose 5.5 and indomethacin (1 10^−6 mol/L)). […] Contractions were recorded isotonically under 1.0 g tension with Hugo Sachs Hebel-Messvorsatz (T1-2)/HF-modem (Hugo Sachs Electronik, Hugstetten, Germany) connected to a pen recorder. […] After 30 min of stimulation, five minutes before adding (R)-α-methylhistamine, pyrilamine (1.10^−5 mol/L concentration in organ bath) was added, and then cumulative concentration-response curves (half-log increments) of (R)-α-methylhistamine, H3-agonist, were recorded until no further change in response was found. Five minutes before adding the tested compounds, the pyrilamine (1 10^−5 mol/L concentration in organ bath) was added, and after 20 minutes cumulative concentration-response curves (half-log increments) of (R)-α-methylhistamine, H3-agonist, were recorded until no further change in response was found. […]"}
{"smiles": "S=C(NC1CCCCC1)N1CCC(c2cnc[nH]2)CC1", "note": "[thioperamide]", "values": [{"measurement": "Kb", "result": 2.14, "unit": "nM"}]}
